The source of these data is patent publication US5221667A, “Renin inhibiting peptides having an α-heteroatom amino acid at the P3 position” (Warner-Lambert Company, priority 1990, dated 1993).

For the assay, the target named is T1, renin (Homo sapiens, UniProt P00797).
T1 sequence (P00797 67-406): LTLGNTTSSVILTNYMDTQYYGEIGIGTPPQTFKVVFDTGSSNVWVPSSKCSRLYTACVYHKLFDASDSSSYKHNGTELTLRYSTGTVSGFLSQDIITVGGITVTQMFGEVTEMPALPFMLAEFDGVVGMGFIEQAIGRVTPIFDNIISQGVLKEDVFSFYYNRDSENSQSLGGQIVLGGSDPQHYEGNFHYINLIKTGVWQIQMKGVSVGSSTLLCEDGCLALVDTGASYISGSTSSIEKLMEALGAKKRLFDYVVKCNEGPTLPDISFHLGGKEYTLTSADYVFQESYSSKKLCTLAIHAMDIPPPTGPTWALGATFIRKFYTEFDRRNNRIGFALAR
Description: in vitro renin inhibitory activity, radioimmunoassay for angiotensin I. In kind it is biochemical. The note with it: for inhibition at 0.01 µM: at 10^-8 molar concentration of test compound, read-out: In Vitro Activity, percent inhibition at 10^-8; for IC50: renin incubated two hours at 37° with angiotensinogen, values marked * are IC50, read-out: In Vitro Activity, IC50 (molar concentration causing 50% inhibition of renin activity). The method, then:
The effectiveness of the aforementioned compounds is determined by a test for in vitro renin inhibitory activity. This activity is determined by a standard radioimmunoassay for angiotensin I. In this assay the enzyme, renin, incubated for two hours at 37° in the presence of a substrate, angiotensinogen, generates the product, angiotensin I. Test compounds are added to the incubation mixture. Relative activity is reported as the percent inhibition at the specified molar concentration or as the IC50, which is the molar concentration of test compound causing a 50% inhibition of the renin activity.

For `CC(C)CC(=O)NC(SC(C)C)C(=O)N[C@@H](Cc1c[nH]cn1)C(=O)N[C@@H](CC1CCCCC1)[C@@H](O)[C@@H](O)CC(C)C` (single isomer, unassigned) [IVA-NHCH(SCH(CH3)2)CO--HIS--CAD (Isomer A), IVA-NHCH(SCH(CH3)2)CO-HIS-CAD (Isomer A)], the inhibition at 0.01 µM came out at 10.5%.
With `CC[C@H](C)CNC(=O)C[C@H](O)[C@H](CC(C)C)NC(=O)[C@H](CC(C)C)NC(=O)C(NC(=O)CC(C)C)Sc1ccccc1` (single isomer, unassigned) [IVA-NHCH(SPh)CO--LEU--STA--MBA (Isomer A), IVA-NHCH(SPh)-CO-LEU-STA-MBA], the IC50 was determined as 140 nM.
Regarding `CC[C@H](C)CNC(=O)C[C@H](O)[C@H](CC(C)C)NC(=O)[C@H](CC(C)C)NC(=O)C(NC(=O)CC(C)C)Sc1ccccc1` (single isomer, unassigned) [IVA-NHCH(SPh)CO--LEU--STA--MBA (Mixture of diastereomers), IVA-NHCH(SPh)-CO-LEU-STA-MBA], the IC50 is 190 nM.
On to `CC[C@H](C)CNC(=O)C[C@H](O)[C@H](CC(C)C)NC(=O)[C@H](CC(C)C)NC(=O)C(NC(=O)OC(C)(C)C)SC(C)C` (some centres unmarked) [BOC--NHCH(SCH(CH3)2)CO--LEU--STA--MBA, BOC-NHCH(SCH-(CH3)2)CO-LEU-STA-MBA], for which the inhibition at 1 µM (at 10^-6 molar concentration of test compound, read-out: In Vitro Activity, percent inhibition at 10^-6) stood at 23%.
For `CC(C)CC(=O)NC(C(=O)N[C@@H](Cc1c[nH]cn1)C(=O)N[C@@H](CC1CCCCC1)[C@@H](O)[C@@H](O)CC(C)C)S(=O)(=O)C(C)C` (some centres unmarked) [IVA-NHCH(SO2 CH(CH3)2)CO--HIS--CAD, IVA-NHCH(SO2 CH(CH3)2)CO-HIS-CAD], the inhibition at 0.01 µM worked out at 8.2%.
Regarding `CC(C)CC(=O)NC(Sc1ccccc1)C(=O)N[C@@H](Cc1c[nH]cn1)C(=O)N[C@@H](CC1CCCCC1)[C@@H](O)[C@@H](O)CC(C)C` (some centres unmarked) [IVA-NHCH(SPh)CO--HIS--CAD, IVA-NHCH(SPh)CO-HIS-CAD], the IC50 came to 1.5 nM.
Still for that read-out and setting: to “IVA-NHCH(N(CH3)Ph)CO-HIS-CAD [IVA-NHCH(N(CH3)Ph)CO--HIS--CAD]” belongs 3.5 nM; to “IVA-NHCH(NHPh)CO-HIS-CAD [IVA-NHCH(NHPh)CO--HIS--CAD]”, 13 nM.
Take “IVA-NHCH(NHPh)CO-LEU-STA-MBA [IVA-NHCH(NHPh)CO--LEU--STA--MBA]”: the “In Vitro Activity, percent inhibition at 10^-6” value (at 10^-6 molar concentration of test compound) is on record as 24%.
Regarding “IVA-NHCH-(OPh)CO-HIS-CAD [IVA-NHCH(OPh)CO--HIS--CAD]”, the IC50 was found to be 3000 nM.
Regarding “IVA-NHCH-(SCH(CH3)2)CO-HIS-CAD (Isomer B) [IVA-NHCH(SCH(CH3)2)CO--HIS--CAD (Isomer B)]”, the IC50 amounted to 5.7 nM.

Usually inhibition stands for the relative decrease from the control value, in per cent.
